# Test results taken from US20100331545A1, “REGULATOR FOR SIGNALING TOLL-LIKE RECEPTOR, WHICH COMPRISES CATHEPSIN INHIBITOR AS ACTIVE INGREDIENT” (NIPPON CHEMIPHAR CO., LTD., priority 2007, published 2010).
# Columns and labels:
# TLR3 = assay: Cytokine mRNA expression in poly(I:C)-treated DCs derived from mouse spleen; type: cell-based; details: poly(I:C) (TLR3 ligand)-treated mouse spleen DCs, total RNA 3 hours after stimulation
# Experimental: (§1) Quantitative RT-PCR was performed as described in K. Sato et al., Nat Med 12, 1410 (2006). The following primers were used.
# (§2) Spleens were excised from male mice of 8 to 10 weeks. Dendritic cells (DCs) were separated from the spleens using pan DC microbeads (Miltenyi Biotec, Bergisch Gladbach, Germany), according to the manufacturer's instructions.
# (§3) Total RNA was extracted 3 hours after stimulation.
# TLR7, 8 = assay: Cytokine mRNA expression in R837-treated DCs derived from mouse spleen; type: cell-based; details: R837 (TLR7, 8 ligand)-treated mouse spleen DCs, total RNA 3 hours after stimulation
# Experimental: as §1, §2, §3
# TLR9 [1] = assay: Cytokine mRNA expression in CpG-treated BM-DCs (quantitative RT-PCR); type: cell-based, mouse
# Experimental: as §1
# The level of mRNA expression was normalized with that of β-actin expression.
# BM-DCs were generated by either GM-CSF or Flt3L. Total RNA was extracted 6 hours after CpG stimulation.
# Th17 cells = assay: Th17 cell induction by splenic DCs cocultured with CD4+ T cells (intracellular staining of IL-17); type: cell-based, mouse; details: 3 days coculture
# Experimental: (§4) Before staining, cells were incubated with mouse BD Fc Block to minimize nonspecific staining. The cells were then stained with fluorophore-conjugated monoclonal Abs. The following fluorophore-conjugated mAbs were used; Allophycocyanin (APC)-conjugated anti-CD3e (145-2C11), fluorescein isothiocyanate (FITC)-conjugated anti-CD4 (RM4-5), CD11c (HL3), CD40 (3/23), CD80 (16-10Al), CD86 (GL1), I-A^d (AMS-32.1), and Phycoerythrin (PE)-conjugated anti-mouse IL-17 (TC11-18H10). For intracellular cytokine staining, cells were collected and left unstimulated or were stimulated for 5 hours with PMA (40 ng ml^−1) and ion-omycin (4 μg ml^−1) in the presence of GolgiPlug at the recommended concentration. Standard intracellular cytokine staining was performed as follows; cells were first stained extracellularly with APC-conjugated anti-CD3 and FITC-conjugated anti-CD4 mAbs, then were fixed and permeabilized with Cytofix/Cytoperm solution, and finally were stained intracellularly with PE-conjugated anti-IL-17 mAb. Flowcytometric analysis was performed by FACScan with CellQuest software or FACSCanto II with Diva software.
# CD4-positive T cells and splenic DCs were isolated from the spleen using a magnetic sorter and anti-CD4 microbeads. These cells were stimulated with plate-bound anti-CD3 and anti-CD28 mAbs (1 μg ml^−1 each) for 3 days in the presence of 2 ng ml^−1 human TGF-β, 10 μg ml^−1 each of anti-IFN-γ and anti-IL-4 mAbs, with or without CpG ODN, LPS or PGN.
# Cathepsin K inactivation results in defective Th17 polarization in response to CpG, but not LPS or PGN were measured. CD4^+T cells and DCs were sorted from the spleen, and cocultured in the presence of CpG, LPS, or PGN for 3 days. After the culture, percentages of CD3e^+CD4^+IL-17^+ cells were analyzed by flowcytometry.
# BM-derived macrophages = assay: Activation of BM-derived macrophages stimulated by PAMPs; type: cell-based, mouse
# Experimental: (§5) Immature DCs were generated from mouse BM, as described in K. Inaba et al., J. Exp. Med. 176,1693 (1992). In brief, BM cells were cultured with 10 ng ml^−1 murine GM-CSF or 10 ng ml^−1 murine Flt3L in RPMI 1640 medium supplemented with 10% FBS for 6 days. Loosely adherent cells were harvested by gentle pipetting and were used as BM-derived DCs. To obtain BM-derived macrophages, BM cells were cultured with 10 ng ml^−1 M-CSF in α-MEM medium supplemented with 10% FBS for 2 days, and adherent cells were used as BM-derived macrophages. For the pathogen-associated molecular pattern (PAMP) stimulation, cells were plated at 5×10^5 cells ml^−1 in 24-well plates, and cultured with 10 ng ml^−1 Lipopolysaccharide (LPS), 30 μg ml^−1 Peptidoglycan Type I (PGN), or Endotoxin-free phosphorothioate-stabilized CpG oligodeoxynucleotides (CpG ODN).
# (§6) Cells were cultured for 3-24 hours with or without PAMPs or plate-bound anti-CD3/CD28 antibodies in the presence or absence of NC-2300, and concentration of cytokines in the culture supernatant was determined by ELISA kits, according to the manufacturer's instructions.
# CD40, CD80 and CD86 = assay: TLR9-mediated expression of cell surface molecules in DCs (flowcytometry); type: cell-based, mouse; details: stimulated 48 hours
# Experimental: as §4
# DCs were stimulated with CpG or LPS for 48 hours and analyzed by flowcytometry.
# TLR9 [2] = assay: CpG-stimulated cytokine production by BM-DCs (ELISA); type: cell-based, mouse; details: CpG (TLR9 ligand), 24 hours
# Experimental: as §5, §6
# BM-DCs were stimulated with peptidoglycan (PGN), lipopolysaccharide (LPS), and unmethylated CpG oligodeoxynucleotides (CpG) for 24 hours and the culture super-natants were subjected to ELISA. *P<0.05, ***P<0.001 (versus control).
# BM-DCs = assay: In vitro development of BM-DCs; type: cell-based, mouse
# Experimental: as §5
# [3] = test system: rat model of adjuvant arthritis; assay: Rat adjuvant arthritis, oral NC-2300 compared with alendronate; type: in vivo; details: for bone erosion in the ankle (radiological analysis): administered daily day 0 to day 35, soft X-rays of ankle joints day 36
# Experimental: Rats were injected with complete Freund's adjuvant on day 0.
# Bone mineral density of the proximal tibia assessed by pQCT (day 36).
# Assessment for hind paws of adjuvant arthritis rats treated with NC-2300 or vehicle.
# Adjuvant arthritis in hind paw administered with NC-2300 or vehicle was evaluated.
# [4] = test system: T cells stimulated with anti-CD3/CD28 antibodies; assay: IL-2 production of T cells stimulated with anti-CD3/CD28 antibodies (ELISA); type: cell-based, mouse
# Experimental: as §6
# [5] = test system: T cells stimulated with anti-CD3/CD28 antibodies; assay: Cell proliferation assay of T cells stimulated with anti-CD3/CD28 antibodies; type: cell-based, mouse
# Experimental: Cell proliferation was evaluated by using a Cell Proliferation ELISA kit according to the manufacturer's protocol.
# [6] = test system: extracellular-signal regulated kinases 1/2 (ERK 1/2); assay: ERK 1/2 phosphorylation in stimulated DCs (immunoblot); type: cell-based, mouse; details: CpG-induced
# Experimental: DCs were cultured in low serum medium (0.1% FBS) for 4 hours to reduce background and then stimulated with CpG ODN or LPS in the presence or absence of NC-2300. The stimulated cells were subjected to immunoblot analyses as described in K. Sato et al., Nat Med12, 1410 (2006), using Abs for ERK-1/2, phosphorylated ERK-1/2 and β-actin.
# cathepsin K = molecular target: T1, cathepsin K (Mus musculus, UniProt P55097); assay: Enzymatic activity of cathepsin K in BM-DCs (substrate Z-Gly-Pro-Arg-MCA); type: cell-based; details: BM-DCs pre-treated 24 hours, cell lysates
# T1 construct: cell lysates were subjected to enzymatic assay; endogenous in cells; host or cells: bone marrow-derived dendritic cells (BM-DCs): cells pre-treated with NC-2300, then lysed
# T1 sequence (P55097 115-329): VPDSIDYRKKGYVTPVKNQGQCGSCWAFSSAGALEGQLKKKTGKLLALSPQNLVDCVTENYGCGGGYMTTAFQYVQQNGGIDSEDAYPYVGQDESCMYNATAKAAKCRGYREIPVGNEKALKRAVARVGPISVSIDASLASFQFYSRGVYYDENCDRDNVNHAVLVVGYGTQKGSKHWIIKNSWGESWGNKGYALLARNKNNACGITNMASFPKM
# Experimental: BM-DCs were pre-treated with or without the cathepsin K inhibitor NC-2300 for 24 hours and washed extensively with cold phosphate-buffered saline (PBS), and cell lysates were subjected to enzymatic assay. Cathepsin K activity was measured with cathepsin K specific substrate, Z-Gly-Pro-Arg-MCA (GPR).
# cathepsin K−/− DCs = assay: Cytokine production in WT or cathepsin K−/− DCs in response to LPS or CpG, with chloroquine; type: cell-based, mouse; details: chloroquine added 1 hour before the stimulation; cytokines IL-12 and IL-6
# Experimental: as §6
# Cytokine production in WT or cathepsin K^−/− DCs in response to LPS or CpG was measured. Chloroquine was added 1 hour before the stimulation to suppress endosomal acidification. N.D., not detected. *P<0.05, ***P<0.001 (versus WT).
# [7] = BM-DCs, total RNA 6 hours after CpG stimulation
# [8] = arthritic rats, high dose treatment, day 35
smiles,measurement,setting,value
"CCOC(=O)[C@H]1O[C@@H]1C(=O)N[C@@H](CC(C)C)C(=O)NCCC(C)C [E64d, reference compound]",cytokine mRNA expression (IFN-1),TLR3,suppressed
same,cytokine mRNA expression (IFN-1),"TLR7, 8",suppressed
"CC(C)COC[C@H](CC(C)C)NC(=O)[C@H]1O[C@@H]1C(=O)[O-].[Na+] [NC-2300, monosodium (2S,3S)-3-[[(1S)-1-isobutoxymethyl-3-methylbutyl]carbamoyl]oxirane-2-carboxylate]",CpG-induced expression of IL-6 at the mRNA level,TLR9 [1]; [7],downregulated
same,CpG-induced expression of IL-12 at the mRNA level,TLR9 [1]; [7],downregulated
same,CpG-induced expression of IL-23 at the mRNA level,TLR9 [1]; [7],downregulated
same,IFN production by Flt3L-induced DCs in response to CpG,"TLR9 [1]; Flt3L-induced DCs, CpG",suppressed
same,ability of DCs to induce Th17 cells,Th17 cells; DCs stimulated with CpG,markedly inhibited
same,ability of DCs to induce Th17 cells,Th17 cells; DCs stimulated with LPS,only when DCs were stimulated with CpG
same,ability of DCs to induce Th17 cells,Th17 cells; DCs stimulated with PGN,only when DCs were stimulated with CpG
same,activation of BM-derived macrophages,BM-derived macrophages,no significant effects
same,expression of CD40 in DCs,"CD40, CD80 and CD86",reduced expression
same,expression of CD80 in DCs,"CD40, CD80 and CD86",reduced expression
same,expression of CD86 in DCs,"CD40, CD80 and CD86",reduced expression
same,production of IL-12 by DCs,TLR9 [2],significantly inhibited
same,production of IL-23 by DCs,TLR9 [2],significantly inhibited
same,in vitro development of BM-DCs,BM-DCs,no effects
same,locomotion activity: arthritis-induced incapacitation of rearing behavior,[3]; [8],significantly ameliorated the arthritis-induced incapacitation of rearing behavior
same,locomotion activity: severity of the hind limb lameness,[3]; [8],reduced the severity of the hind limb lameness
same,onset rate of arthritis,[3]; rat adjuvant arthritis,without affecting the onset rate of arthritis
same,paw swelling in the course of arthritis,"[3]; rat adjuvant arthritis, hind paws",ameliorated paw swelling
same,inflammation when administered after the onset of disease,"[3]; rat adjuvant arthritis, administered after the onset of disease",ameliorated inflammation
same,bone erosion in the ankle (radiological analysis),[3]; rat adjuvant arthritis,markedly suppressed bone erosion
same,periarticular osteoporosis in the proximal tibia (bone mineral density),"[3]; rat adjuvant arthritis, pQCT day 36",comparable inhibitory effect
same,IL-2 production of T cells,[4],no effect
same,cytokine mRNA expression (IFN-1),TLR3,suppressed
same,proliferation of T cells,[5],no effect
same,phosphorylation of ERK 1/2 in DCs,[6],Suppression
same,cytokine mRNA expression (IFN-1),"TLR7, 8",suppressed
same,cathepsin K activity in DCs,cathepsin K,inhibited by NC-2300 in a dose-dependent manner
"NCCCC(O)(P(=O)(O)O)P(=O)(O)O [alendronate, reference compound]",bone erosion in the ankle (radiological analysis),[3]; rat adjuvant arthritis,did not efficiently suppress bone erosion
CCN(CC)CCCC(C)Nc1ccnc2cc(Cl)ccc12 (stereo not shown) [chloroquine],cytokine induction in cathepsin K−/− DCs,cathepsin K−/− DCs,further suppressed
